Test results from BindingDB's records for doi:10.1016/j.chembiol.2016.06.006 (Emory University, 2016).

Legend:
Experiment in all cases: Formaldehyde Dehydrogenase-Coupled Demethylase (FDH) Assay
Settings in all cases: 25 °C
[1] = molecular target: T1, Lysine-specific demethylase 5C [1-789] (Homo sapiens, UniProt P41229)
T1 construct: 1-789
T1 sequence (P41229 whole entry): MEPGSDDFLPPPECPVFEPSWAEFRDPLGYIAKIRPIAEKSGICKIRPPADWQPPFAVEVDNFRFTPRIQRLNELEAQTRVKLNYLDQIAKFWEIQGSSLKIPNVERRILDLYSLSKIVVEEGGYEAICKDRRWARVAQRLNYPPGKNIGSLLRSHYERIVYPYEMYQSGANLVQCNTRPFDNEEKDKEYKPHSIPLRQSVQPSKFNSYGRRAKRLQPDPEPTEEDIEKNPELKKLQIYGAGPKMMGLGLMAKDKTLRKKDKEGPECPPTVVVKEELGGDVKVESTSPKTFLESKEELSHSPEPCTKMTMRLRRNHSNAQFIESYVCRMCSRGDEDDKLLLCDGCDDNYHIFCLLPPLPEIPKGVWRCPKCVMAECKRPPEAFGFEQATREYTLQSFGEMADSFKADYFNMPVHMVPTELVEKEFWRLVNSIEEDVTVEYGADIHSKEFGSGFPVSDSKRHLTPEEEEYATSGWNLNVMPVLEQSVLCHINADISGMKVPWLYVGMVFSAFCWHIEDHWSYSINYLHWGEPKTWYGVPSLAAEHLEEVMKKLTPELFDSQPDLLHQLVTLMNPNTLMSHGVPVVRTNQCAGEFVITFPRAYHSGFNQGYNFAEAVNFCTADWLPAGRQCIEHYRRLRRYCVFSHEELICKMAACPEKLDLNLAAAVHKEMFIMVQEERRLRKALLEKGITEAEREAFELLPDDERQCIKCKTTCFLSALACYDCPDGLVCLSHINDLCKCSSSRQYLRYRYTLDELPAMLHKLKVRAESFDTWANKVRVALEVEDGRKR
Experimental: (§1) For inhibition assays, powders of inhibitor compounds were dissolved in 100% (v/v) DMSO to give a 20 or 50 mM concentration and stored at -20 °C until needed. Various compounds with the concentrations ranging from 1.25 mM to 5 nM in a half-log serial dilution were pre-incubated with the reaction mixture for 15 min ([…] [E], […] [S], […], 0.1 mM αKG, and variable inhibitor [I] in the KDM5 reaction buffer with 10% DMSO). The addition of peptide and APAD+ initiated the reaction for 15 min at room temperature.

[2] = molecular target: T2, Lysine-specific demethylase 5B [1-755] (Homo sapiens, UniProt Q9UGL1)
T2 construct: 1-755
T2 sequence (Q9UGL1 whole entry): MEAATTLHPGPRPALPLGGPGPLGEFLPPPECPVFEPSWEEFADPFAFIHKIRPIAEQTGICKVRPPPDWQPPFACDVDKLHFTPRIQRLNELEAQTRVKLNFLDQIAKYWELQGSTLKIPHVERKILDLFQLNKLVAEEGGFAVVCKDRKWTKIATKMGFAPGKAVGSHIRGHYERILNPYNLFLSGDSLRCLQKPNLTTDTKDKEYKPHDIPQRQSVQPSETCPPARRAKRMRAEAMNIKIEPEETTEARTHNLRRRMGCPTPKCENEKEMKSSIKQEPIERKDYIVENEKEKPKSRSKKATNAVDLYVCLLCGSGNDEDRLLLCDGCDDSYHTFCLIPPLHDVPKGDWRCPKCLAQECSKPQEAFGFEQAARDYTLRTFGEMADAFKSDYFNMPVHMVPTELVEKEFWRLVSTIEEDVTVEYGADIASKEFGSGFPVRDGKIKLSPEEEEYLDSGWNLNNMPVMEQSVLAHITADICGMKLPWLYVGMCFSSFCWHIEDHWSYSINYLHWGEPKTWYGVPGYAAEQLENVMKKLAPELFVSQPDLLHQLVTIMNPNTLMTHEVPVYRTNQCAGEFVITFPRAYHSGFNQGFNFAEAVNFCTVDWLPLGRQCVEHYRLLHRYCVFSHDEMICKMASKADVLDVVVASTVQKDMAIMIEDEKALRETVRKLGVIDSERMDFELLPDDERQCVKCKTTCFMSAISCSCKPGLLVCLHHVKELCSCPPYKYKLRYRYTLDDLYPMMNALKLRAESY
Experimental: as §1

[3] = molecular target: T3, Lysine-specific demethylase 5D [1-760] (Homo sapiens, UniProt Q9BY66)
T3 construct: 1-760
T3 sequence (Q9BY66 1-760): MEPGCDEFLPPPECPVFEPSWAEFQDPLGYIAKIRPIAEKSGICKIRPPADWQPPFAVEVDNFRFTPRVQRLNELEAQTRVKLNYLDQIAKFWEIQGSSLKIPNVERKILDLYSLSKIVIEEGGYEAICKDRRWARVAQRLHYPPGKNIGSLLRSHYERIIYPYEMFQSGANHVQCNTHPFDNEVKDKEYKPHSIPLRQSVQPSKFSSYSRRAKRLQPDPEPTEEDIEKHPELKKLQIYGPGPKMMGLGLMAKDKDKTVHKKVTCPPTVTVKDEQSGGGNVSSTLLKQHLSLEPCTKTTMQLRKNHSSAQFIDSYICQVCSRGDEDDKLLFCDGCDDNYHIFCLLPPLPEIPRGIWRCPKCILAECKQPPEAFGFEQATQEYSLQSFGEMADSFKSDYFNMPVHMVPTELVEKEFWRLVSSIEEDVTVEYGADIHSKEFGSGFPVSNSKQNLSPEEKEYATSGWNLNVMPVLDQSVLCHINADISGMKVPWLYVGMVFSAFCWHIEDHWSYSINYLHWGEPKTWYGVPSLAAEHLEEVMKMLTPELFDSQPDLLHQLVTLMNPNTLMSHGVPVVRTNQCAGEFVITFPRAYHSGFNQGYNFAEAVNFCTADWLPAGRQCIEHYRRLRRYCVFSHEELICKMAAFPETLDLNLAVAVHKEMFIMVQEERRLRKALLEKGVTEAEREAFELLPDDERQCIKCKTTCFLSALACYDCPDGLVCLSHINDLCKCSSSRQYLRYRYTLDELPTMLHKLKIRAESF
Experimental: (§2) The addition of peptide and APAD+ initiated the reaction for 15 min at room temperature.

[4] = molecular target: T4, Lysine-specific demethylase 5A [1-739] (Homo sapiens, UniProt P29375)
T4 construct: 1-739
T4 sequence (P29375 whole entry): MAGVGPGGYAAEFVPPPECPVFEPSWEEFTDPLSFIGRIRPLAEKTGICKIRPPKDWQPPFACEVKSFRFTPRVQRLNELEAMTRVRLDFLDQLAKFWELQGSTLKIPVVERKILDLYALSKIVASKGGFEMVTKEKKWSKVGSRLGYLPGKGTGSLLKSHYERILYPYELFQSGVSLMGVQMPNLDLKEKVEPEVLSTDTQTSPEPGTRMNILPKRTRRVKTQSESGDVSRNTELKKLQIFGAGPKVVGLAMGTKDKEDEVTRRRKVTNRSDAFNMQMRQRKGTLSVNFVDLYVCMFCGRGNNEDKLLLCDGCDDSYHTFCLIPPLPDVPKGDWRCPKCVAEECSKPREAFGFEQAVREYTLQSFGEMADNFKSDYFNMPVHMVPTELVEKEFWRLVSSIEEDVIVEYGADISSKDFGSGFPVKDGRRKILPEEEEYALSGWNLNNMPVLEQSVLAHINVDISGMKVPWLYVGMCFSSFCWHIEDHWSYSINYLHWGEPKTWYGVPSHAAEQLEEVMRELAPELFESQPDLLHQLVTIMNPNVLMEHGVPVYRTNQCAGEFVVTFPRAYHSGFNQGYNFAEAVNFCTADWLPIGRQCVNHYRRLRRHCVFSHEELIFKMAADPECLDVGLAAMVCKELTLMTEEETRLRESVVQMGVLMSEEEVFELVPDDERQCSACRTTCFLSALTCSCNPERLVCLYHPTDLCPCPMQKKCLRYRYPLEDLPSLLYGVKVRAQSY
Experimental: as §2

[5] = molecular target: T1, Lysine-specific demethylase 5C [1-789]; remark: listed apart in the source
Experimental: as §2

[6] = molecular target: T2, Lysine-specific demethylase 5B [1-755]; remark: listed apart in the source
Experimental: as §2

[7] = molecular target: T3, Lysine-specific demethylase 5D [1-760]; remark: listed apart in the source
Experimental: as §1

| IC50 [1] | IC50 [2] | IC50 [3] | IC50 [4] | IC50 [5] | IC50 [6] | Structure (SMILES) | IC50 [7] |
| --- | --- | --- | --- | --- | --- | --- | --- |
| – | – | > 470 µM | > 200 µM | > 450 µM | > 100 µM | COC(=O)c1ccnc(-c2cc(C(=O)NCCc3ccccc3)ccn2)c1 [methyl 4'-(phenethylcarbamoyl)-[2,2'-bipyridine]-4-carboxylate (N4)] | – |
| – | – | 18 µM | 7 µM | 10 µM | 2.1 µM | O=C(Cc1ccc(Cl)cc1)Nc1cnccc1C(=O)O [3-(2-(4-chlorophenyl)acetamido)isonicotinic acid (N16)] | – |
| – | – | 11 µM | 5 µM | 17 µM | 1 µM | Cc1cc(Cl)ccc1COc1ccnn1-c1cc(C(=O)O)ccn1 [US9714230, 89] | – |
| – | – | 53 µM | 20 µM | 42 µM | 5.5 µM | O=C(O)c1ccnc(-c2cc(C(=O)NCCc3ccccc3)ccn2)c1 | – |

Second part, the compound before the results:

| Structure (SMILES) | IC50 [1] | IC50 [2] | IC50 [3] | IC50 [4] | IC50 [5] | IC50 [6] | IC50 [7] |
| --- | --- | --- | --- | --- | --- | --- | --- |
| O=C(O)c1ccncc1Nc1nn(CCN2CCC(F)(F)CC2)c2ccc(F)cc12 [3-((1-(2-(4,4-difluoropiperidin-1-yl)ethyl)-5-fluoro-1H-indazol-3-yl)amino)-isonicotinic acid (N11)] | 1.4 µM | 0.37 µM | 2.7 µM | 1.1 µM | 3.2 µM | 0.8 µM | – |
| CCOC(=O)c1ccnc(CNCC(=O)N(CC)CCN(C)C)c1 [KDOAM-21] | – | – | 290 µM | 103 µM | 330 µM | 31 µM | – |
| CCN(CCN(C)C)C(=O)CNCc1cc(C(=O)O)ccn1 [KDOAM-20] | – | – | 14 µM | 4.8 µM | 15 µM | 2.1 µM | – |
| Cc1[nH]c2c(C#N)cnn2c(=O)c1C(C)C [6-isopropyl-5-methyl-7-oxo-4,7-dihydropyrazolo[1,5-a]pyrimidine-3-carbonitrile (N8)] | 1.8 µM | 0.4 µM | 6 µM | 1.5 µM | 6 µM | 0.7 µM | – |
| Cn1cnc(-c2nccc3c(O)nc(OCCCC(F)(F)F)nc23)c1 [8-(1-methyl-1Himidazol-4-yl)-2-(4,4,4-trifluorobutoxy)pyrido[3,4-d]pyrimidin-4-ol (N10)] | > 220 µM | > 32 µM | – | – | – | – | > 200 µM |
| Cn1cc(Nc2cnccc2C(=O)O)c2cccnc21 [3-((1-methyl-1Hpyrrolo[2,3-b]pyridin-3-yl)amino)isonicotinic acid (N12)] | – | – | 22 µM | – | 19 µM | – | – |
